# Earlier results as cited in patent US20040176378A1, “Compositions of a cyclooxygenase-2 selective inhibitor and an amphetamine for the treatment of reduced blood flow to the central nervous system” (Pharmacia Corporation, priority 2003, published 2004).
# Legend:
# human stroke victims = conditions: coupled with physical therapy, compared to stroke victims receiving only physical therapy
smiles,measurement,setting,value
CC(N)Cc1ccccc1 (centres unmarked) [amphetamine],alternative circuit activation,infarcted rats,promoted alternative circuit activation
same,motor recovery,human stroke victims,accelerated motor recovery
